Assay results as given in patent publication US5049548A, “Renin-inhibitory di-, tri-, and tetrapeptides” (Merck & Co., Inc., priority 1989, dated 1991).
Square brackets hold non-standard residues; d marks the D form. Peptide text beside a SMILES is read from it. * marks the point of attachment. Sta = CC(C)C[C@H](N)[C@@H](O)CC(=O)O; Isovaleryl = CC(C)CC(=O)*

Target: T1, human plasma renin (Homo sapiens, UniProt P00797)
T1 construct: determined against human plasma renin; from tissue; host or cells: human plasma
T1 sequence (P00797 67-406): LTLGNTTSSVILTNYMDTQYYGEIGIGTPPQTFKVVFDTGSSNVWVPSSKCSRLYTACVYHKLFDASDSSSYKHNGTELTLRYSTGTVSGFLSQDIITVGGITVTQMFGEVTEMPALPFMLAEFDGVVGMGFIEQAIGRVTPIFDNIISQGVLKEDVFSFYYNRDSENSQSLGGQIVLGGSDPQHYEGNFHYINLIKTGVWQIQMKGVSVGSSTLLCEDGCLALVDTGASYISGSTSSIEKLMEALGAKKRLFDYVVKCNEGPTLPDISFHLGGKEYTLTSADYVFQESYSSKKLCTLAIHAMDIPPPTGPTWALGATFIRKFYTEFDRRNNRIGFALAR
Experiment: Renin-inhibitory potency against human plasma renin
Format: biochemical
Details: not given
Experimental: Renin-inhibitors potencies were determined against human plasma renin and are expressed as IC50 values.

For `CCCC[C@H](NC(=O)[C@H](Cc1ccccc1)N[C@@H]1CN2CCC1CC2)C(=O)N[C@@H](CC1CCCCC1)[C@@H](O)CC(=O)N[C@H](C(=O)NCc1ccncc1)[C@@H](C)CC` [Example 20, N^α -(quinuclidin-3-yl)Phe-Nle-ACHPA-Ile-AMP], which IC50 is on record?
The IC50 was 5 nM.

With `CCCC[C@H](NC(=O)[C@H](Cc1ccccc1)N(C)[C@@H]1CN2CCC1CC2)C(=O)N[C@@H](CC1CCCCC1)[C@@H](O)CC(=O)N[C@H](C(=O)NCc1ccncc1)[C@@H](C)CC` [Example 21, N^α -Methyl-N^α -(quinuclidin-3(S)-yl)Phe-Nle-ACHPA-Ile-NHCH2 (pyridin-4-yl)] as the compound, how does the IC50 read?
Its IC50 is 150 nM.

Which IC50 does the source give for `CCCC[C@H](NC(=O)[C@H](Cc1ccccc1)N[C@@H]1CN2CCC1CC2)C(=O)N[C@@H](CC1CCCCC1)[C@@H](O)C(=O)OCC` [Example 30, N^α -(Quinuclidin-3(S)-yl)Phe-Nle-norACHPA-OEt] here?
The IC50 was 91 nM.

For “N^α -(Quinuclidin-3(S)-yl)Phe-His-Cal[CH(OH)CH2 ]Val-NH-n-butyl [Example 27]”, which IC50 is on record?
Its IC50 is 1.4 nM.

With “N^α -(Quinuclidin-3-yl)Phe-His-ACHPA-Ile-NHCH2 (pyridin-4-yl) [Example 24]” as the compound, how does the IC50 read?
The IC50 was 2 nM.

For “N^α -[(pyridin-2-yl)methyl]Phe-His-ACHPA-Ile-NHCH2 (pyridin-4-yl) [Example 31]”, which IC50 is on record?
The IC50 was 7 nM.

Which IC50 does the source give for “[N^α -(N-Methylquinuclidin-3(S)-yl)Phe-His-ACHPA-Ile-NH-CH2 -(pyridin-4-yl)]^+ I^- [Example 23]” here?
Its IC50 is 1.7 nM.

System: hog renin
Experiment: not given
Details: after the injection of hog renin into nephrectomized rats; cited from earlier work

Which “blood pressure in vivo” value does the source give for `CC(C)CC(=O)N[C@H](C(=O)N[C@H](C(=O)N[C@@H](CC(C)C)[C@@H](O)CC(=O)N[C@@H](C)C(=O)N[C@@H](CC(C)C)[C@@H](O)CC(=O)O)C(C)C)C(C)C` [pepstatin] (Isovaleryl-VV[Sta]A[Sta]-OH) here?
Its value is “reduces blood pressure in vivo”.
